Measurements published in ChEMBL document CHEMBL4049391, “Vicinal diaryl azole-based urea derivatives as potential cholesterol lowering agents acting through inhibition of SOAT enzymes” (Eur J Med Chem, 2017).

Tests used:
Rattus norvegicus = species on record: Rattus norvegicus; assay: Inhibition of rat microsomal SOAT assessed as reduction in cholesteryl oleate formation from oleoyl co-enzyme A at 10 uM pretreated for 15 mins followed by oleoyl co-enzyme A addition measured after 10 mins by HPTLC method relative to control
[1] = Inhibition of rat microsomal SOAT assessed as reduction in cholesteryl oleate formation from oleoyl co-enzyme A pretreated for 15 mins followed by oleoyl co-enzyme A addition after 10 mins by HPTLC method

| inhibition (Rattus norvegicus) [%] | IC50 [1] [µM] | pIC50 [1] | Compound |
| --- | --- | --- | --- |
| 21.9 |  |  | COc1cc(NC(=O)Nc2ccc(-c3sc(C)nc3-c3ccc(C)cc3)cc2)cc(OC)c1OC |
| 54.5 | 12.3 | 4.908 | CCCCNC(=O)Nc1ccc(-c2nonc2-c2ccc(F)cc2)cc1 |
| 18.6 |  |  | CCCCCCCNC(=O)Nc1ccc(-c2nonc2-c2ccc(C)cc2)cc1 |
| 1.58 |  |  | CCc1cccc(CC)c1NC(=O)Nc1nc(-c2ccc(F)cc2)c(-c2ccc(Cl)cc2)s1 |
| 22.2 |  |  | CCCCCCCNC(=O)Nc1ccc(-c2sc(C)nc2-c2ccc(OC)cc2)cc1 |
| 11.4 | 94.8 | 4.0233 | COc1ccc(-c2nc(C)sc2-c2ccc(NC(=O)Nc3ccccc3)cc2)cc1 |
| 1.03 |  |  | CCc1cccc(CC)c1NC(=O)Nc1nc(-c2ccc(C)cc2)c(-c2ccc([N+](=O)[O-])cc2)s1 |
| 22.3 |  |  | COc1ccc(-c2nc(C)sc2-c2ccc(NC(=O)Nc3ccc(F)cc3F)cc2)cc1 |
| 3.28 |  |  | O=C(Nc1nc(-c2ccc(Cl)cc2)c(-c2ccc([N+](=O)[O-])cc2)s1)Nc1ccc(F)cc1F |
| 40 |  |  | CCCCNC(=O)Nc1ccc(-c2sc(C)nc2-c2ccc(OC)cc2)cc1 |
| 26.6 |  |  | Cc1ccc(-c2nc(C)sc2-c2ccc(NC(=O)Nc3ccc(F)cc3F)cc2)cc1 |
| 12.3 | 118 | 3.927 | Cc1nc(-c2ccc(Cl)cc2)c(-c2ccc(NC(=O)NCCN3CCOCC3)cc2)s1 |
| 39 | 31.9 | 4.496 | COc1ccc(-c2nc(NC(=O)Nc3ccc(F)cc3F)sc2-c2ccc(NC(C)=O)cc2)cc1 |
| 0.43 |  |  | CCCCNC(=O)Nc1nc(-c2ccc(F)cc2)c(-c2ccc(NS(C)(=O)=O)cc2)s1 |
| 3.3 |  |  | CCCCNC(=O)Nc1nc(-c2ccc(F)cc2)c(-c2ccc(Cl)cc2)s1 |
| 9.15 | 123 | 3.909 | CCCCCCCCCCCCNC(=O)Nc1ccc(-c2nonc2-c2ccc(C)cc2)cc1 |
| 18.9 |  |  | CS(=O)(=O)Nc1ccc(-c2sc(NC(=O)Nc3ccc(F)cc3F)nc2-c2ccc(F)cc2)cc1 |
| 4.97 | 196 | 3.7081 | Cc1nc(-c2ccc(F)cc2)c(-c2ccc(NC(=O)Nc3ccc(F)cc3F)cc2)s1 |
| 39.5 | 41.3 | 4.384 | CCCCNC(=O)Nc1nc(-c2ccc(OC)cc2)c(-c2ccc(NC(C)=O)cc2)s1 |
| 27.5 |  |  | CCCCCCCCCCCCNC(=O)Nc1ccc(-c2sc(C)nc2-c2ccc(OC)cc2)cc1 |
| 21.2 |  |  | O=C(Nc1ccc(-c2nonc2-c2ccc(Cl)cc2)cc1)Nc1ccc(F)cc1F |

| inhibition (Rattus norvegicus) [%] | IC50 [1] [µM] | pIC50 [1] | Compound |
| --- | --- | --- | --- |
| 1.52 |  |  | CCCCCCCNC(=O)Nc1nc(-c2ccc(OC)cc2)c(-c2ccc([N+](=O)[O-])cc2)s1 |
| 46.2 | 12.2 | 4.914 | CCCCCCCCCCCCNC(=O)Nc1ccc(-c2sc(C)nc2-c2ccc(C)cc2)cc1 |
| 2.03 |  |  | CC(=O)Nc1ccc(-c2sc(NC(=O)Nc3ccc(F)cc3F)nc2-c2ccc(Cl)cc2)cc1 |
| 5.23 |  |  | CCCCNC(=O)Nc1nc(-c2ccc(C)cc2)c(-c2ccc(NC(C)=O)cc2)s1 |
| 19.6 | 19 | 4.721 | COc1ccc(-c2nc(NC(=O)Nc3ccc(F)cc3F)sc2-c2ccc(NS(C)(=O)=O)cc2)cc1 |
| 59.9 | 9.58 | 5.0186 | CCCCNC(=O)Nc1ccc(-c2sc(C)nc2-c2ccc(F)cc2)cc1 |
| 3.75 |  |  | CCCCNC(=O)Nc1nc(-c2ccc(Cl)cc2)c(-c2ccc(NC(C)=O)cc2)s1 |
| 5.63 |  |  | CCCCNC(=O)Nc1nc(-c2ccc(Cl)cc2)c(-c2ccc(NS(C)(=O)=O)cc2)s1 |
| 34.5 | 48.6 | 4.313 | CCCCCCCCCCCCNC(=O)Nc1ccc(-c2sc(C)nc2-c2ccc(F)cc2)cc1 |
| 21.5 |  |  | COc1ccc(-c2nc(C)sc2-c2ccc(NC(=O)NCCN3CCOCC3)cc2)cc1 |
| 23.3 |  |  | CC(=O)Nc1ccc(-c2sc(NC(=O)Nc3ccc(F)cc3F)nc2-c2ccc(F)cc2)cc1 |
| 1.2 |  |  | CCCCCCCCCCCCNC(=O)Nc1nc(-c2ccccc2)c(-c2ccccc2)s1 |
| 25.4 |  |  | COc1ccc(-c2nc(C)sc2-c2ccc(NC(=O)Nc3cc(OC)c(OC)c(OC)c3)cc2)cc1 |
| 24.4 |  |  | COc1cc(NC(=O)Nc2ccc(-c3sc(C)nc3-c3ccc(Cl)cc3)cc2)cc(OC)c1OC |
| 30.9 | 30.9 | 4.412 | CCc1cccc(CC)c1NC(=O)Nc1ccc(-c2sc(C)nc2-c2ccc(C)cc2)cc1 |
| 13.4 |  |  | Cc1ccc(-c2nc(C)sc2-c2ccc(NC(=O)Nc3ccccc3)cc2)cc1 |
| 1.73 | 21.3 | 4.672 | CCCCCCCNC(=O)Nc1nc(-c2ccc(OC)cc2)c(-c2ccc(Cl)cc2)s1 |
| 3.02 |  |  | CCCCNC(=O)Nc1nc(-c2ccc(Cl)cc2)c(-c2ccc([N+](=O)[O-])cc2)s1 |
| 32.7 |  |  | CCCCNC(=O)Nc1nc(-c2ccc(C)cc2)c(-c2ccc(NS(C)(=O)=O)cc2)s1 |
| 1.91 |  |  | CCCCCCCCCCCCNC(=O)Nc1nc(-c2ccc(F)cc2)c(-c2ccc(Cl)cc2)s1 |
| 12.6 |  |  | Cc1nc(-c2ccc(Cl)cc2)c(-c2ccc(NC(=O)Nc3c(C(C)C)cccc3C(C)C)cc2)s1 |

| inhibition (Rattus norvegicus) [%] | IC50 [1] [µM] | pIC50 [1] | Compound |
| --- | --- | --- | --- |
| 6.88 |  |  | Cc1nc(-c2ccc(Cl)cc2)c(-c2ccc(NC(=O)Nc3ccccc3)cc2)s1 |
| 4.3 |  |  | CCCCCCCNC(=O)Nc1ccc(-c2nonc2-c2ccc(Cl)cc2)cc1 |
| 42 | 12.6 | 4.898 | COc1cc(NC(=O)Nc2ccc(-c3sc(C)nc3-c3ccc(F)cc3)cc2)cc(OC)c1OC |
| 23 |  |  | CCCCNC(=O)Nc1ccc(-c2nonc2-c2ccc(Cl)cc2)cc1 |
| 18.5 |  |  | CCCCCCCCCCCCNC(=O)Nc1ccc(-c2nonc2-c2ccc(Cl)cc2)cc1 |
| 36.4 | 94 | 4.0271 | CCCCNC(=O)Nc1nc(-c2ccc(C)cc2)c(-c2ccc(Cl)cc2)s1 |
| 9.58 |  |  | Cc1ccc(-c2nc(NC(=O)Nc3ccccc3)sc2-c2ccc(Cl)cc2)cc1 |
| 3.06 |  |  | CC(=O)Nc1ccc(-c2sc(NC(=O)Nc3ccc(F)cc3F)nc2-c2ccc(C)cc2)cc1 |
| 2.17 |  |  | Cc1ccc(-c2nc(NC(=O)Nc3ccc(F)cc3F)sc2-c2ccc(NS(C)(=O)=O)cc2)cc1 |
| 6.39 |  |  | CS(=O)(=O)Nc1ccc(-c2sc(NC(=O)Nc3ccc(F)cc3F)nc2-c2ccc(Cl)cc2)cc1 |
| 3.59 |  |  | O=C(Nc1nc(-c2ccc(F)cc2)c(-c2ccc([N+](=O)[O-])cc2)s1)Nc1ccc(F)cc1F |
| 10.6 | 17.7 | 4.7512 | O=C(Nc1ccccc1)Nc1nc(-c2ccccc2)c(-c2ccccc2)s1 |
| 33.4 |  |  | CCCCCCCNC(=O)Nc1ccc(-c2sc(C)nc2-c2ccc(C)cc2)cc1 |
| 3.03 |  |  | O=C(Nc1nc(-c2ccccc2)c(-c2ccccc2)s1)Nc1ccc(F)cc1F |
| 3.93 |  |  | Cc1ccc(-c2nc(NC(=O)Nc3ccc(F)cc3F)sc2-c2ccc(Cl)cc2)cc1 |
| 3.4 |  |  | COc1ccc(-c2nc(NC(=O)Nc3ccc(F)cc3F)sc2-c2ccc([N+](=O)[O-])cc2)cc1 |
| 30.9 |  |  | CCCCCCCNC(=O)Nc1ccc(-c2nonc2-c2ccc(F)cc2)cc1 |
| 19 |  |  | Cc1ccc(-c2nc(C)sc2-c2ccc(NC(=O)NCCN3CCOCC3)cc2)cc1 |
| 2.98 |  |  | CCCCNC(=O)Nc1nc(-c2ccc(F)cc2)c(-c2ccc([N+](=O)[O-])cc2)s1 |
| 1.77 |  |  | CCCCCCCCCCCCNC(=O)Nc1nc(-c2ccc(Cl)cc2)c(-c2ccc([N+](=O)[O-])cc2)s1 |
| 3.36 |  |  | CCCCCCCCCCCCNc1ccc(-c2sc(NC(=O)NCCCC)nc2-c2ccc(OC)cc2)cc1 |

| inhibition (Rattus norvegicus) [%] | IC50 [1] [µM] | pIC50 [1] | Compound |
| --- | --- | --- | --- |
| 1.52 |  |  | CCc1cccc(CC)c1NC(=O)Nc1nc(-c2ccc(C)cc2)c(-c2ccc(Cl)cc2)s1 |
| 5.45 |  |  | CCCCNC(=O)Nc1nc(-c2ccc(OC)cc2)c(-c2ccc(NS(C)(=O)=O)cc2)s1 |
| 0.34 |  |  | CCc1cccc(CC)c1NC(=O)Nc1ccc(-c2nonc2-c2ccc(C)cc2)cc1 |
| 5.75 |  |  | CCCCCCCCCCCCNC(=O)Nc1ccc(-c2sc(C)nc2-c2ccc(Cl)cc2)cc1 |
| 30.1 |  |  | COc1ccc(-c2nc(C)sc2-c2ccc(NC(=O)Nc3c(C(C)C)cccc3C(C)C)cc2)cc1 |
|  | 103 | 3.9863 | CCc1cccc(CC)c1NC(=O)Nc1nc(-c2ccc(C)cc2)c(-c2ccc(N)cc2)s1 |
| 3.86 |  |  | CCCCNC(=O)Nc1nc(-c2ccc(C)cc2)c(-c2ccc([N+](=O)[O-])cc2)s1 |
| 47.1 |  |  | O=C(Nc1ccc(-c2nonc2-c2ccc(F)cc2)cc1)Nc1ccc(F)cc1F |
| 1.3 |  |  | Cc1nc(-c2ccc(Cl)cc2)c(-c2ccc(NC(=O)Nc3ccc(F)cc3F)cc2)s1 |
| 2.83 |  |  | CCCCNC(=O)Nc1ccc(-c2nonc2-c2ccc(C)cc2)cc1 |
| 8.25 |  |  | CCc1cccc(CC)c1NC(=O)Nc1ccc(-c2nonc2-c2ccc(Cl)cc2)cc1 |
| 4.67 |  |  | CCCCNC(=O)Nc1nc(-c2ccc(OC)cc2)c(-c2ccc(NC(C)C)cc2)s1 |
| 3.12 |  |  | CCCCNC(=O)Nc1nc(-c2ccc(OC)cc2)c(-c2ccc([N+](=O)[O-])cc2)s1 |
| 2.98 |  |  | COc1ccc(-c2nc(NC(=O)Nc3ccc(F)cc3F)sc2-c2ccc(Cl)cc2)cc1 |
| 15.4 |  |  | CCCCNC(=O)Nc1nc(-c2ccc(F)cc2)c(-c2ccc(NC(C)=O)cc2)s1 |
| 29.3 |  |  | Cc1nc(-c2ccc(F)cc2)c(-c2ccc(NC(=O)NCCN3CCOCC3)cc2)s1 |
| 3.86 |  |  | Cc1ccc(-c2nc(NC(=O)Nc3ccc(F)cc3F)sc2-c2ccc([N+](=O)[O-])cc2)cc1 |
| 16.8 |  |  | Cc1nc(-c2ccc(F)cc2)c(-c2ccc(NC(=O)Nc3ccccc3)cc2)s1 |
| 11.2 |  |  | Cc1ccc(-c2nc(C)sc2-c2ccc(NC(=O)Nc3c(C(C)C)cccc3C(C)C)cc2)cc1 |
| 2.56 |  |  | CCCCNC(=O)Nc1nc(-c2ccccc2)c(-c2ccccc2)s1 |
| 1.77 |  |  | CCCCCCCCCCCCNc1ccc(-c2sc(NC(=O)Nc3ccc(F)cc3F)nc2-c2ccc(OC)cc2)cc1 |
